The text below walks through data of patent publication US7196110B2, “N-substituted tricyclic 3-aminopyrazoles as inhibitors for the treatment of cell proliferative disorders” (Janssen Phamaceutica N.V., priority 2002, dated 2007).

Data set [1] concerns human chronic myelogenous leukemia (CML) K562 cell line. The data set is described as follows: Flow cytometry cell cycle phase distribution in leukemia cells. It is filed as cell-based. The note with it: K562, 24 hours. On the procedure:
(§1) The effect of compounds of the invention on cell proliferation in leukemia cells, in particular, the human chronic myelogenous leukemia (CML) K562 cell line, was tested using flow cytometry and trypan blue exclusion cell counting assays.
(§2) The human chronic myelogenous leukemia (CML) K562 cell line was obtained from American Type Culture Collection (ATCC) and cultured under specified conditions, as provided by ATCC. A Becton Dickinson FACSCalibur instrument was used for flow cytometry analyses. A CycleTEST PLUS DNA Reagent Kit (Cat. No. 340242, Becton Dickinson) was used in the study for cell staining. The standard operating procedure and a protocol for CycleTEST PLUS DNA Reagent Kit from Becton Dickinson have been followed to carry out the study. Briefly, flow cytometric analysis of the differentially stained CML K562 cell line was used to estimate the DNA content and cell cycle phase distribution of cells treated with various concentrations of the compound for 24 hours. […] Data analysis was carried out using the ModFit LT cell cycle data analysis program (Verity Software House, Topsham, Me. 04086, www.vsh.com). Cell viability test was performed using a Trypan Blue exclusion assay (Trypan Blue from Sigma, Cat No. T 0776) following procedures known to those skilled in the art.

For data set [2] the test system is unchanged. The experiment in a line: Trypan blue exclusion cell counting assay in leukemia cells. It is filed as cell-based. On the procedure:
as §1, §2

The test system of the next data set is H460. The data set is described as follows: Flow cytometry and trypan blue exclusion cell counting, H460. It is filed as cell-based, human.
The next data set concerns LoVo. The data set is described as follows: Flow cytometry and trypan blue exclusion cell counting, LoVo. It is filed as cell-based, human. Background: In flow cytometry, cells or beads pass a laser one at a time.
Data set [3] deals with Human tumor cell lines (LoVo, MDA-MB-231, H460 etc.). The data set is described as follows: Anti-tumor assay, human tumor nude mouse xenograft model. It is filed as in vivo, athymic nude mice. The following applies: 50 mg/kg. On the procedure:
The anti-tumor activity of experimental compounds was evaluated in vivo using the human tumor nude mouse xenograft model. All procedures involving animals were conducted in an animal facility fully accredited by the American Association for Assessment and Accreditation of Laboratory Animal Care (AAALAC) and in accordance with The Guide for the Care and Use of Laboratory Animals (NIH). Protocols were approved by the RWJ-PRI Internal Animal Care and Use Committee (IACUC).
Human tumor cell lines (LoVo, MDA-MB-231, H460 etc.) were obtained from American Type Culture Collection and cultured under specified conditions required for each cell type. Female athymic nude mice (Charles River nu/nu) were injected subcutaneously in the inguinal region of the thigh with 1–2×10^6 tumor cells in 0.1 mL volume on day zero. For growth delay studies, mice were dosed orally with vehicle (control group) or experimental drugs beginning three days after tumor cell inoculation. Compounds were prepared in 0.5% methylcellulose and treatments were administered bid for 30–35 consecutive days. Tumor growth was measured twice a week using calipers for the duration of the treatment. Tumor areas (mm^2) were calculated as a product of length×width. […] Differences between treated and control mice were analyzed statistically by ANOVA and Dunnett's t-test. […]
For orientation: In xenograft studies the graft and the host belong to different species.

In data set [4] the test system is MDAH2774 (ovarian cancer). The data set is described as follows: Clonogenicity assay, compound in combination with irradiation, MDAH2774. In kind it is cell-based, human. The protocol:
Radiotherapy is a major therapeutic modality in treating many types of cancers including human prostate and ovarian cancers. The anti-proliferative activity of compounds within the scope of the invention was tested in combination with irradiation treatment.
Cells DU145 (prostate cancer) and MDAH2774 (ovarian cancer) were obtained from ATCC; growth media MEM medium (Mediatech, Herndon, Va.) was supplemented with 8% FBS, 5 U/ml penicillin and 50 μg/ml Streptomycin (Hyclone, Logan, Utah), 2 mM L-glutamine (Hyclone, Logan, Utah), 25 mM HEPES (Hyclone, Logan, Utah); McCoy's 5A medium (Mediatech, Herndon, Va.) was supplemented with 8% FBS, 50 U/ml penicillin and 50 μg/ml-Strep (Hyclone, Logan, Utah) and Glutamine 2 mM L-glutamine (Hyclone, Logan, Utah), ^137CS γ-source was a Gammacell 1000 Elite irradiator (MDS Nordion, Kanata, Ontario, Canada); DMSO; 1× PBS; Methanol; 0.25% Crystal Violet, and 60 mm tissue culture dishes.
DU145 or MDAH2774 cells at desired cell number were plated in early log phase on 60 mm dishes in MEM medium supplemented with 8% FBS, Penicillin, Streptomycin, L-glutamine, or McCoys medium supplemented with 8% FBS, Penicillin, Streptomycin and Glutamine, respectively. Cells were plated in triplicate. […] The final concentrations of the compound in the cell media ranged from 1 to 100 nM. After 24 h incubation with the test compound plates were split in two groups of equal size. The plates in the first group were irradiated with 7.3 Gy (plates containing DU145 cells) or 5.4 Gy (plates containing MDAH2774 cells) using a ^137Cs γ-source (dose rate 3.32 Gy/min). The second group of plates were treated identically but not irradiated. Cells were incubated for an additional 24 hours in medium containing test compound. Then, the cells were replenished with fresh compound-free identical medium and allowed to grow for an additional 11 days. Cells were then fixed with methanol, stained with 0.25% crystal violet, and the clones containing more than 50 cells were counted.
The activity appeared to be concentration-dependent with more dramatic effects achieved at 100 nM compound with radiation in either cell line.

Data set [5] is described as follows: Rat pharmacokinetics study of pro-drugs, conversion to parent monitored by HPLC/MS/MS. It is filed as in vivo. The following applies: po, rat plasma, 10 mg/kg orally, read-out: Fast PK (0.5 h) conc. Prodrug. On the procedure: Furthermore, pro-drugs have been administered orally to rats (10 mg/kg) in pharmacokinetics studies, and the conversion of pro-drugs to the parent compound was montitored by HPLC/MS/MS analyses. Parent compound or the glucuronide conjugates of the parent compound was detected in the rat plasma from the pharmacokinetics studies (Table G).

As for `COc1cc2c(cc1OC)-c1n[nH]c(Nc3cccc(F)c3)c1C2` [Compound 14, (3-Fluoro-phenyl)-(6,7-dimethoxy-2,4-dihydro-indeno[1,2-c]pyrazol-3-yl)-amine], the “Percent of cells at G0–G1” value in data set [1] (compound conc. 1 nM) came to 35%; in data set [1] (compound conc. 10 nM), 31%; in data set [1] (compound conc. 100 nM), 2%; in data set [1] (compound conc. 1000 nM) it was 3%; in data set [1] (compound conc. 10000 nM), 5%. The “Percent of cells at G2/M” value in data set [1] (compound conc. 1 nM) was determined as 11%; in data set [1] (compound conc. 10 nM) it was 28%; in data set [1] (compound conc. 100 nM), 98%; in data set [1] (compound conc. 1000 nM), 93%; in data set [1] (compound conc. 10000 nM) it was 90%. For the same molecule, the “Percent of cells at S phase” value is 53% in data set [1] (compound conc. 1 nM); 41% in data set [1] (compound conc. 10 nM); 0% in data set [1] (compound conc. 100 nM); 4% in data set [1] (compound conc. 1000 nM); 5% in data set [1] (compound conc. 10000 nM). The “effect on cell proliferation in K562 cells” value in data set [2] (24 hours treatment) is reported as “concentration-dependent decrease of cell proliferation”. The IC50 in data set [2] (Homo sapiens, K562, 24 hours treatment, read-out: IC50 on K562 cell proliferation) was approximately 10 nM. Also, the “cell cycle / growth effect in H460 cells” value in the data set on H460 was “blocked growth”. The “cell cycle / growth effect in LoVo cells” value in the data set with LoVo is recorded as “blocked growth”. The molecule further displayed a tumor growth inhibition in data set [3] of 72%. For the same molecule, in data set [4] (5.4 Gy, compound 1 to 100 nM), the “colony formation inhibition with versus without radiation, MDAH2774” value is “the inhibitory effect was greater with radiation”. Besides, in data set [4] (in the presence or absence of radiation (5.4 Gy)), the “concentration from which marked inhibitory activity against colony formation was shown, MDAH2774” value is not below 30 nM. The “No. of MDAH2774 Clones (average of three plates)” value turned out to be 121 in data set [4] (w/Radiation (5.4 Gy), 1000 cells initially plated, compound 1 nM); 125 in data set [4] (w/Radiation (5.4 Gy), 1000 cells initially plated, compound 3 nM); 121 in data set [4] (w/Radiation (5.4 Gy), 1000 cells initially plated, compound 10 nM); 8 in data set [4] (w/Radiation (5.4 Gy), 1000 cells initially plated, compound 30 nM); 3 in data set [4] (w/Radiation (5.4 Gy), 1000 cells initially plated, compound 100 nM); 98 in data set [4] (w/o Radiation, 200 cells initially plated, compound 1 nM). Moreover, the “No. of MDAH2774 Clones (average of three plates)” value in data set [4] (w/o Radiation, 200 cells initially plated, compound 3 nM) worked out at 96; in data set [4] (w/o Radiation, 200 cells initially plated, compound 10 nM) it was 110; in data set [4] (w/o Radiation, 200 cells initially plated, compound 30 nM), 35; in data set [4] (w/o Radiation, 200 cells initially plated, compound 100 nM), 8.

For `COc1cc2c(cc1OC)-c1c(c(Nc3cccc(F)c3)nn1C(=O)CO)C2` [Compound 432, 1-[3-(3-Fluoro-phenylamino)-6,7-dimethoxy-4H-indeno[1,2-c]pyrazol-1-yl]-2-hydroxy-ethanone], the concentration at 0.5 h in data set [5] is 80 nM.
